# In paper PMC5693942 (Scientific Reports, 2017):
# Values joined by “and” are separate entries in the source; they are usually repeats but may differ in a detail not shown here. Equal values may be shown once.
# Assays:
# [1] = test system: Tetrahymena thermophila; assay: microbe, parasite or virus in culture; assay type: cell-based
# Protocol: The tests were performed in accordance with the protocols provided by the manufacturer. […] The tests were carried out in disposable spectrophotometric cells of 1 cm path-length, to enable the measurement of the optical density (OD) at 440 nm. […] This change in OD over the time period is used to quantify the degree of inhibition and subsequent calculation of the EC50. Each concentration was repeated in duplicate.
# [2] = test system: D. magna; conditions: ref [34]; cited from earlier work
# [3] = Activated sludge simulating microcosms (degradation of FL, formation of NFL); assay type: physicochemical
# Protocol: Activated sludge microcosm experiments were conducted in the dark and aerobic conditions. Three microcosm bioreactors were investigated in duplicate. They were filled with 2 L of fresh activated sludge collected from a local wastewater treatment plant. […] Dark conditions were simulated by covering up the flask with foil. Aerobic conditions were obtained using air from BOC air cylinder and a thorough mixing was maintained using magnetic stirrers. The experiment was 24 hours long. […] Collected samples were subsequently frozen until their analysis to prevent degradation of compounds.
# The compounds studied are characterized as having low volatility and therefore volatilization was not considered as a potential removal pathway in studied microcosms. Photodegradation was also not considered (not relevant) under tested activated sludge conditions. Therefore the two important degradation mechanisms to consider were biodegradation and sorption to sludge. […] However, in this study, sorption equilibrium was assumed and therefore sorption could be considered negligible. This is because sorption is assumed to be fast when compared to biological degradation.
# Several reports utilized pseudo-first-order kinetics for degradation of micropollutants in activated sludge reactors[48]–[50]. […] Pseudo-first order biodegradation rate k1 [L g^−1h^−1]
# [4] = test system: Daphnia magna; assay: Daphnia magna acute 48 h immobilization assay (Daphtoxkit); assay type: in vivo; conditions: 48 h;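 note: test concentrations in mg per L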
# Protocol: Six concentration levels (5 concentrations plus control, four replicate beakers for each concentrations, five individual for each beaker) were tested. […] Each experiment was repeated in triplicate.
# [5] = River water simulating microcosms (degradation of FL); conditions: river water, 1 µg L^−1 racemic FL, 16 days
# [6] = test system: P. promelas; conditions: ref [34]; cited from earlier work
structure (smiles),measurement,setting,value
CNCC[C@H](Oc1ccc(C(F)(F)F)cc1)c1ccccc1 [(S)-FL],% I (percentage inhibition),"[1]; definitive test, conc. 0.104",-1.720%
same,% I (percentage inhibition),"[1]; definitive test, conc. 0.313",4.194%
same,% I (percentage inhibition),"[1]; definitive test, conc. 0.535",0.108%
same,% I (percentage inhibition),"[1]; definitive test, conc. 10.446",7.204%
same,% I (percentage inhibition),"[1]; definitive test, conc. 20.892",22.366%
same,% I (percentage inhibition),"[1]; definitive test, conc. 68.945",73.441%
same,% I (percentage inhibition),"[1]; definitive test, conc. 104.462",83.118%
same,% I (percentage inhibition),"[1]; range test, conc. 0.005",22.617%
same,% I (percentage inhibition),"[1]; range test, conc. 0.050",21.857%
same,% I (percentage inhibition),"[1]; range test, conc. 0.500",26.510%
same,% I (percentage inhibition),"[1]; range test, conc. 5.000",26.130%
same,% I (percentage inhibition),"[1]; range test, conc. 50.000",57.653%
same,LOEC21d -grazing,[2],0.20 mg/L
same,LOEC21d -immobilization,[2],0.44 mg/L
same,LOEC21d -reproduction,[2],0.44 mg/L
same,kbiol,[3]; 10 µg L^−1,0.04 LgSS ^−1h^−1
same,t1/2biol,[3]; 10 µg L^−1,19 h and 18.9 h
same,k1,"[3]; 10 µg L^−1, pseudo-first order",0.07 h⁻¹
same,kbiol,[3]; 100 µg L^−1,0.04 LgSS ^−1h^−1
same,t1/2biol,[3]; 100 µg L^−1,19 h and 19.4 h
same,k1,"[3]; 100 µg L^−1, pseudo-first order",0.07 h⁻¹
same,transformation / removal,"[3]; 100 µg L^−1 microcosm, 24 h",80%
same,"Average effect (N immobile, 5 daphnids per replicate)",[4]; concentration 0.5,0.25
same,"Average effect (N immobile, 5 daphnids per replicate)",[4]; concentration 1.5,1
same,"Average effect (N immobile, 5 daphnids per replicate)",[4]; concentration 5,3.25
same,"Average effect (N immobile, 5 daphnids per replicate)",[4]; concentration 16,5
same,"Average effect (N immobile, 5 daphnids per replicate)",[4]; concentration 50,5
same,removal of FL,[5]; dark biotic conditions (DBR),60.4%
same,removal of FL,[5]; light abiotic conditions (LAR),74.5%
same,removal of FL,[5]; light biotic reactor (LBR),98.4%
same,LOEC7d -feeding,[6],0.05 mg/L
same,LOEC7d -growth,[6],0.05 mg/L
same,LOEC7d -survival,[6],0.10 mg/L
